Data reported in ChEMBL document CHEMBL2169886 (J Med Chem, 2012).

Columns and labels:
[1] = in vivo; settings: rat
[2] = in vivo; settings: rat, po
[3] = physchem; settings: buffer, pH 7.4
[4] = clinical; settings: human, plasma
[5] = clinical; settings: human, in vivo, po, 30 mg
[6] = organism: Rattus norvegicus; settings: in vivo, po, BLD = below limit of detection

Row | SMILES | Vd [1] [L/kg] | bioavailability [2] [%] | logD [3] | AUC [4] [ng·h/mL] | Cmax at 1.2 h [5] [ng/mL] | F [6]
1 | OCCn1cc(-c2cnc3nnn(Cc4ccc5ncccc5c4)c3n2)cn1 [PF-04217903] | 1.6 | 71 | 1.38 |  |  | 
2 | CS(=O)(=O)O.OCCn1cc(-c2cnc3nnn(Cc4ccc5ncccc5c4)c3n2)cn1 |  |  |  | 810 | 240 | 
3 | N[C@@H]1CCN(c2cnc3nnn(Cc4ccc5ncccc5c4)c3n2)C1 | 3.6 |  |  |  |  | BLD
4 | c1cnc2ccc(Cn3nnc4ncc(-c5cnn(C6CCNCC6)c5)nc43)cc2c1 | 27 |  |  |  |  | BLD
5 | Nc1cnc2nnn(Cc3ccc4ncccc4c3)c2n1 | 0.95 | 75 | 1.23 |  |  | 
